The source of these data is US4798827A, “Synergistin derivatives and pharmaceutical compositions which contain them” (Rhone-Poulenc Sante, priority 1986, dated 1989).

This series in a line: solubility in water (as salts / hydrochlorides). To be noted: product with 0.1N hydrochloric acid and distilled water.

Structures are written as SMILES. Numbered stars: 1 amine (or outer) side, 2 acyl side, 3 side chain; on linkers, the order of the positions; unused ones are H or OH. Bridge positions count the residues as written; N and C are the ends. Square brackets hold non-standard residues; d marks the D form. Peptide text beside a SMILES is read from it. * marks the point of attachment. X1 = O=C1C[C@@H](C(=O)[*:2])N([*:1])C[C@H]1CS[C@@H]1CN2CCC1CC2; NMePhe(4-NMe2) = CN[C@@H](Cc1ccc(N(C)C)cc1)C(=O)O; Picolinoyl(3-OH) = O=C(c1ncccc1O)*; Phg = N[C@H](C(=O)O)c1ccccc1; dAbu = CC[C@@H](N)C(=O)O

With `CC[C@H]1NC(=O)[C@@H](NC(=O)c2ncccc2O)[C@@H](C)OC(=O)[C@H](c2ccccc2)NC(=O)[C@@H]2CC(=O)[C@H](CS[C@@H]3CN4CCC3CC4)CN2C(=O)[C@H](Cc2ccc(N(C)C)cc2)N(C)C(=O)[C@@H]2CCCN2C1=O` [Example 1, 5δ-[(3-Quinuclidinyl)thiomethyl]pristinamycin IA] ({Picolinoyl(3-OH)}-T[dAbu]P[NMePhe(4-NMe2)][X1][Phg]; ester 1-C), the “strength of aqueous solution obtained” value came to 5%.
